According to patent US20070117770A1, “Human ribosomal DNA (rDNA) and ribosomal RNA (rRNA) nucleic acids and uses thereof” (Cylene Pharmaceuticals, Inc., priority 2005, published 2007):

How the values were obtained:
[1] = molecular target: T1, nucleolin/HP pre-rRNA region (Homo sapiens, UniProt P19338); assay: EMSA, nucleolin/HP ligand interaction; format: binding; conditions: nucleolin ~250 nM, 32P-labeled ligand 10 or 250 nM, 30 minutes (FIG. 1, FIG. 2)
T1 construct: without the N-terminal acidic stretches domain
Method: The following assays assessed effects of compounds on interactions between nucleolin and nucleic acid ligands capable of forming quadruplex (QP) and hairpin (HP) secondary structures. Nucleic acid ligands tested were a cMyc QP DNA having nucleotide sequence 5′-[…]-3′ (SEQ ID NO: 176) and a HP pre-rRNA region to which nucleolin binds, having the sequence 5′-[…]-3′ (SEQ ID NO: 177). In the assays, recombinant nucleolin (˜250 nM), which was fused to maltose binding protein and had the sequence under accession number NM_005381 without the N-terminal acidic stretches domain, was incubated with each of the two ^32P-labeled nucleic acid ligands (10 or 250 nM). Nucleolin and the nucleic acid ligand were incubated in the presence or absence of a test compound of Formula A-1, B-1, C-6 or C-7 in an incubation buffer (12.5 mM Tris, pH 7.6, 60 mM KCl, 1 mM MgCl2, 0.1 mM EDTA, 1 mM DTT, 5% glycerol, 0.1 mg/ml BSA) for 30 minutes at room temperature. Structures for A-1 and B-1 are shown above and structures for C-6 and C-7 are shown hereafter: [drawing 17] The resulting complexes were separated on a 6% DNA retardation gel using 0.5× TBE with 20 mM KCl as a running buffer (i.e., electrophoresis mobility shift assay (EMSA)).

[2] = molecular target: HIPK2(h) (Homo sapiens, UniProt Q9H2X6); assay: Protein kinase inhibition assay; format: biochemical; conditions: read-out: percent residual activity of HIPK2(h)
Method: (§1) Certain compounds were tested for activity in protein kinase inhibition assays. All substrates were dissolved and diluted to working stocks in de-ionized water, apart from histone H1 (10× working stock in 20 mM MOPS pH 7.0), PDKtide (10× working stock in 50 mM Tris pH 7.0) ATF2 (which is typically stored at a 20× working stock in 50 mM Tris pH 7.5, 150 mM NaCl, 0.1 mM EGTA, 0.03% Brij-35, 50% glycerol, 1 mM benzamidine, 0.2 mM PMSF and 0.1% R-mercaptoethanol), KKLNRTLSFAEPG (SEQ ID NO:203) and RRRLSFAEPG (SEQ ID NO:204) (50 mM HEPES pH 7.4) and GGEEEEYFELVKKKK (SEQ ID NO:205) (20 mM MOPS pH 7.0). All kinases were pre-diluted to a 10× working concentration prior to addition into the assay. The composition of the dilution buffer for each kinase is detailed below.
(§2) In a final reaction volume of 25 μl, HIPK2 (h) (5-10 mU) is incubated with 8 mM MOPS pH 7.0, 0.2 mM EDTA, 0.33 mg/ml myelin basic protein, 10 mM MgAcetate and [gamma-33P-ATP] (specific activity approx. 500 cpm/pmol, concentration as required). The reaction is initiated by the addition of the MgATP mix. After incubation for 40 minutes at room temperature, the reaction is stopped by the addition of 5 μl of a 3% phosphoric acid solution. 10 μl of the reaction is then spotted onto a P30 filtermat washed three times for 5 minutes in 75 mM phosphoric acid and once in methanol prior to drying and scintillation counting.

[3] = molecular target: Lyn(m) (Mus musculus, UniProt P25911); assay: Protein kinase inhibition assay; format: biochemical; conditions: read-out: percent residual activity of Lyn(m)
Method: as §1
In a final reaction volume of 25 μl, Lyn (m) (5-10 mU) is incubated with 50 mM Tris pH 7.5, 0.1 mM EGTA, 0.1 mM Na3VO4, 0.1% R-mercaptoethanol, 0.1 mg/ml poly(Glu, Tyr) 4:1, 10 mM MgAcetate and [gamma-33P-ATP] (specific activity approx. 500 cpm/pmol, concentration as required). The reaction is initiated by the addition of the MgATP mix. After incubation for 40 minutes at room temperature, the reaction is stopped by the addition of 5 μl of a 3% phosphoric acid solution. […]

[4] = molecular target: CDK1/cyclinB(h) (Homo sapiens, UniProt P06493); assay: Protein kinase inhibition assay; format: biochemical; conditions: read-out: percent residual activity of CDK1/cyclinB(h)
Method: as §1
as §2, with “CDK1/cyclinB” for “HIPK2”, “0.1” for “0.33”, “histone H1,” for “myelin basic protein,”, “filtermat and” for “filtermat”

[5] = molecular target: EphA5(h) (Homo sapiens, UniProt P54756); assay: Protein kinase inhibition assay; format: biochemical; conditions: read-out: percent residual activity of EphA5(h)
Method: as §1
as §2, with “EphA5” for “HIPK2”, “2.5 mM MnCl2, 0.1” for “0.33”, “poly (Glu, Tyr) 4:1,” for “myelin basic protein,”, “Filtermat A and” for “P30 filtermat”

T1 sequence (P19338 284-710 limits assumed): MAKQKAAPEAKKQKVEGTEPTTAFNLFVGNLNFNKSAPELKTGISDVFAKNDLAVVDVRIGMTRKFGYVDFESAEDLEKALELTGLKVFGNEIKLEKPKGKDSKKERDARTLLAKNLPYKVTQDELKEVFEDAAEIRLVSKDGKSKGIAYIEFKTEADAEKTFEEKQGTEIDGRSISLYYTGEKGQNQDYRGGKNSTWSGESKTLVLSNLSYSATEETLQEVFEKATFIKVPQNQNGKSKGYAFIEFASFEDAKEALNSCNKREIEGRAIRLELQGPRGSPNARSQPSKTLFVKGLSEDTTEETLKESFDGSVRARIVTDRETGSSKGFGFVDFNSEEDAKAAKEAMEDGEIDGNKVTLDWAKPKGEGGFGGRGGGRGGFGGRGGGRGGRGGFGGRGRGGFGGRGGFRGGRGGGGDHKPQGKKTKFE
Sequence of EphA5(h) (P54756 25-1037): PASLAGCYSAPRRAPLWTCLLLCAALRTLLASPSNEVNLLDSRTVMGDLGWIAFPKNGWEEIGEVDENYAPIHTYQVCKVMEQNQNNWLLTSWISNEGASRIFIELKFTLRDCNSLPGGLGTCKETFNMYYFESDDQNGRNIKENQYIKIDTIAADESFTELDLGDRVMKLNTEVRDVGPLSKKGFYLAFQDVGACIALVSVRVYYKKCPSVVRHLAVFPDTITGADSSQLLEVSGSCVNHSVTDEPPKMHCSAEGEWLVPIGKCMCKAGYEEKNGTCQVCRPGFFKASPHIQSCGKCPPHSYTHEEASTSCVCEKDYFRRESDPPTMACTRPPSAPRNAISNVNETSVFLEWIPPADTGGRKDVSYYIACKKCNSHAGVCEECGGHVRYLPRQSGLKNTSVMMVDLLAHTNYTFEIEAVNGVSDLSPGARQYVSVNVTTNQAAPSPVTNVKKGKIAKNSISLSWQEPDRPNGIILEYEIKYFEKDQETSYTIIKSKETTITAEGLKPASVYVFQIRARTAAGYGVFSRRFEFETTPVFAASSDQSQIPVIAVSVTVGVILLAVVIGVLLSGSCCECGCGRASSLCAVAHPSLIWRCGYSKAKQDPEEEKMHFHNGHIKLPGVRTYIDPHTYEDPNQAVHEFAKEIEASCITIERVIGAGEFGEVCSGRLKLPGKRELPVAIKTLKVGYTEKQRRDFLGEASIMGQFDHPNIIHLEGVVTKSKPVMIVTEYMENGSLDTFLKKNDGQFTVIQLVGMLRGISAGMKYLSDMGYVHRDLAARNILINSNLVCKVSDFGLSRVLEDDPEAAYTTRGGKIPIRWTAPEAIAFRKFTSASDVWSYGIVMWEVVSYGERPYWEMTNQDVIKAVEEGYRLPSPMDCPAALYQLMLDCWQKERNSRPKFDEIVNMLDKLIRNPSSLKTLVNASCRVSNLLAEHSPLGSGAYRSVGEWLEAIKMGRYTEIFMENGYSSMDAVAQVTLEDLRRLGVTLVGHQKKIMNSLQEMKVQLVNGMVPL
Sequence of Lyn(m) (P25911 whole entry): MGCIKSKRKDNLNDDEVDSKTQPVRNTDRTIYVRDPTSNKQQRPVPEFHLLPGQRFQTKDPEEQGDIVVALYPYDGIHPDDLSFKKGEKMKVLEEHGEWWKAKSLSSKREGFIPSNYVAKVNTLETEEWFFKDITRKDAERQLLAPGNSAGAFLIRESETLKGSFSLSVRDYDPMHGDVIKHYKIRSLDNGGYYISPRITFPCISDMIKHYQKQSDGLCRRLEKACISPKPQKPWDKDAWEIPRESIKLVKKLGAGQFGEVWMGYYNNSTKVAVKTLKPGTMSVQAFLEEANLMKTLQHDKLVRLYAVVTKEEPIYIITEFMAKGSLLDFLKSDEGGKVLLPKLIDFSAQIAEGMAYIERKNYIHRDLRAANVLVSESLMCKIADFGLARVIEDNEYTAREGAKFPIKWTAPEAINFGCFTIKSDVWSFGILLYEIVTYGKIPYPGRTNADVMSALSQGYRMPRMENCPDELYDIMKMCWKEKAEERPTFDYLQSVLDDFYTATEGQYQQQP
Sequence of HIPK2(h) (Q9H2X6 whole entry): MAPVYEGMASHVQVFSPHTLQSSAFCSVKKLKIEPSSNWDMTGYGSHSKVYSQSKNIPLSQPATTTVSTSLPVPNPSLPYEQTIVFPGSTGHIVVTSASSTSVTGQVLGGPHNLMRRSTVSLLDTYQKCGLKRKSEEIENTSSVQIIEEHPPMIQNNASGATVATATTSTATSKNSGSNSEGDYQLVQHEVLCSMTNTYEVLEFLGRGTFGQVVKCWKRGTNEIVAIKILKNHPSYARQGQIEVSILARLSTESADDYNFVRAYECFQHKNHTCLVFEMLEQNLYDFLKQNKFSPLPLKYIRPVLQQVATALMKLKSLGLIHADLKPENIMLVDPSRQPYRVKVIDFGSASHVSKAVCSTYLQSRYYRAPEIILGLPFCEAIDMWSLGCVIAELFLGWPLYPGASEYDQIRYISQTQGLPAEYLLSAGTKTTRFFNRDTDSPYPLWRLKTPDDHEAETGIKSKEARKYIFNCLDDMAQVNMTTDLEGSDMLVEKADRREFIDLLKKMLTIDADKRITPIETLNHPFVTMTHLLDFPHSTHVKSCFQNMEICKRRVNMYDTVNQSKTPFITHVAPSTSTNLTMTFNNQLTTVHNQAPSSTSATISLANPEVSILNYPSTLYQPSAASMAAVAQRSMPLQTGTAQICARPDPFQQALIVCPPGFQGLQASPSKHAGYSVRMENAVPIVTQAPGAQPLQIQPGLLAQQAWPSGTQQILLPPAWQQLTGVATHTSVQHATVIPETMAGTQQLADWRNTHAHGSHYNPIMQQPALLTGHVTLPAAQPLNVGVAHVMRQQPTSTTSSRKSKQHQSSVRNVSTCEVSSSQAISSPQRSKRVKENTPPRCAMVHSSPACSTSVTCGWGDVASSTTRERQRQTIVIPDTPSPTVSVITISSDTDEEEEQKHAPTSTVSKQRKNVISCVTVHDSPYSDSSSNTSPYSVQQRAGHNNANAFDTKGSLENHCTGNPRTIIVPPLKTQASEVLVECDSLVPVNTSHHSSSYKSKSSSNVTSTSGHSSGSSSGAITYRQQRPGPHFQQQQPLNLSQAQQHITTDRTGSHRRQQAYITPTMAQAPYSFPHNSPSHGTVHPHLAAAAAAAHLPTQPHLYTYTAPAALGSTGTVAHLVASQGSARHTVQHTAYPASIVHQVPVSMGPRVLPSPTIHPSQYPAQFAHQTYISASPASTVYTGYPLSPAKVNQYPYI
Sequence of CDK1/cyclinB(h) (P06493 whole entry): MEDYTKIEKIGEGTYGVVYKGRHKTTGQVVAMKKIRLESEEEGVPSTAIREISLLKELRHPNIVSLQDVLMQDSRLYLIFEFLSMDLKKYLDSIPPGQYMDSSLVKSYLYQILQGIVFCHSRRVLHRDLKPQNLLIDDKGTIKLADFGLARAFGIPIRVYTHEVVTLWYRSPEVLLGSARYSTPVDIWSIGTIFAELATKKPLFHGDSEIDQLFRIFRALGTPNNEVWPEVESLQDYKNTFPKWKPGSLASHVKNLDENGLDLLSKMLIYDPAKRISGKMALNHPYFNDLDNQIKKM
Sequence of CDK1/cyclinB(h) (P14635 whole entry partner): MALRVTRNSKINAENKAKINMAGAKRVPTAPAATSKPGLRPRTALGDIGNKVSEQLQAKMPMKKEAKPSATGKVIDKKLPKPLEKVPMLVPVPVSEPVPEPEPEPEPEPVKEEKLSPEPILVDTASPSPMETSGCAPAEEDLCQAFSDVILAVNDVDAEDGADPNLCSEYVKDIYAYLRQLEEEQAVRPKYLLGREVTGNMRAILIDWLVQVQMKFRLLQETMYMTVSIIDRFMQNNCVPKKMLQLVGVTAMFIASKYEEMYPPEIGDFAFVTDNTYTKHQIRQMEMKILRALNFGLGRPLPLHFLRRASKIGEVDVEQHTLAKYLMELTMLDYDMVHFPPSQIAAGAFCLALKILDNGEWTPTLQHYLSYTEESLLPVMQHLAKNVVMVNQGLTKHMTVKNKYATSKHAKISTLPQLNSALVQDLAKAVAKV

remaining activity at 2.5 µM [2]	remaining activity at 2.5 µM [3]	remaining activity at 2.5 µM [4]	remaining activity at 2.5 µM [5]	SMILES	interference with the nucleolin/HP ligand interaction [1]
111%	106%	93%	101%	CC(=O)N1CCN(c2ccc3c(=O)c(C(=O)NCCN4CCCC4)c4n(C)c5ccccc5n4c3n2)CC1 [Compound B-1]	did not significantly interfere with the nucleolin/HP interaction
106%	89%	84%	111%	CN1CCCC1CCNC(=O)c1cn2c3c(c(N4CCC(c5cnccn5)C4)c(F)cc3c1=O)Oc1cc3ccccc3cc1-2 (stereo not shown) [Compound A-1]	did not significantly interfere with the nucleolin/HP ligand interaction
